pIC50: −log10 of the molar value. Converted amounts (≈) assume the structure as drawn.
Experiments:
[1] = Antiplatelet aggregatory activity against New Zealand white rabbit platelets at 100 uM preincubated for 2 to 3 mins followed by ADP-addition measured after 4 mins by turbidometric method relative to vehicle control; format: functional, Oryctolagus cuniculus, Platelet
[2] = Cytotoxicity against mouse RAW264.7 cells assessed as cell viability at 3.125 ug/ml measured after 24 hrs in presence of LPS by MTT assay (reference value: 96.3 +/- 1%); format: toxicity; details: read-out: Activity
RAW264.7 [3] = assay: Inhibition of LPS-induced NO production in mouse RAW264.7 cells at 6.25 ug/ml measured after 24 hrs by Griess assay relative to LPS-treated control; format: functional; details: RAW264.7, 24 h
RAW264.7 [4] = assay: Inhibition of LPS-induced NO production in mouse RAW264.7 cells measured after 24 hrs by Griess assay; format: functional, cell-based; details: for IC50: RAW264.7, 24 h
[5] = Cytotoxicity against mouse RAW264.7 cells assessed as cell viability at 25 ug/ml measured after 24 hrs in presence of LPS by MTT assay (reference value: 96.3 +/- 1%); format: toxicity; details: read-out: Activity
[6] = Antiplatelet aggregatory activity against New Zealand white rabbit platelets at 100 uM preincubated for 2 to 3 mins followed by arachidonic acid -addition measured after 4 mins by turbidometric method relative to vehicle control; format: functional, Oryctolagus cuniculus, Platelet
RAW264.7 [7] = assay: Inhibition of LPS-induced NO production in mouse RAW264.7 cells at 12.5 ug/ml measured after 24 hrs by Griess assay relative to LPS-treated control; format: functional; details: RAW264.7, 24 h
[8] = Cytotoxicity against mouse RAW264.7 cells assessed as cell viability at 12.5 ug/ml measured after 24 hrs in presence of LPS by MTT assay (reference value: 96.3 +/- 1%); format: toxicity; details: read-out: Activity
[9] = Cytotoxicity against mouse RAW264.7 cells assessed as cell viability at 6.25 ug/ml measured after 24 hrs in presence of LPS by MTT assay (reference value: 96.3 +/- 1%); format: toxicity; details: read-out: Activity
[10] = Cytotoxicity against mouse RAW264.7 cells assessed as cell viability at 50 ug/ml measured after 24 hrs in presence of LPS by MTT assay (reference value: 96.3 +/- 1%); format: toxicity; details: read-out: Activity
[11] = Antiplatelet aggregatory activity against New Zealand white rabbit platelets at 100 uM preincubated for 2 to 3 mins followed by PAF-addition measured after 4 mins by turbidometric method relative to vehicle control; format: functional, Oryctolagus cuniculus, Platelet
RAW264.7 [12] = assay: Inhibition of LPS-induced NO production in mouse RAW264.7 cells at 3.125 ug/ml measured after 24 hrs by Griess assay relative to LPS-treated control; format: functional; details: RAW264.7, 24 h
[13] = Cytotoxicity against mouse RAW264.7 cells assessed as cell viability at 1.563 ug/ml measured after 24 hrs in presence of LPS by MTT assay (reference value: 96.3 +/- 1%); format: toxicity; details: read-out: Activity
RAW264.7 [14] = assay: Inhibition of LPS-induced NO production in mouse RAW264.7 cells at 1.563 ug/ml measured after 24 hrs by Griess assay relative to LPS-treated control; format: functional; details: RAW264.7, 24 h
[15] = Antiplatelet aggregatory activity against New Zealand white rabbit platelets preincubated for 2 to 3 mins followed by ADP-addition measured after 4 mins by turbidometric method; format: functional, cell-based, Oryctolagus cuniculus; details: platelet
RAW264.7 [16] = assay: Inhibition of LPS-induced NO production in mouse RAW264.7 cells at 1.562 ug/ml measured after 24 hrs by Griess assay relative to LPS-treated control; format: functional; details: RAW264.7, 24 h
[17] = Antiplatelet aggregatory activity against New Zealand white rabbit platelets preincubated for 2 to 3 mins followed by arachidonic acid-addition measured after 4 mins by turbidometric method; format: functional, cell-based, Oryctolagus cuniculus; details: platelet
[18] = Cytotoxicity against mouse RAW264.7 cells assessed as cell viability at 1.562 ug/ml measured after 24 hrs in presence of LPS by MTT assay (reference value: 96.3 +/- 1%); format: toxicity; details: read-out: Activity
RAW264.7 [19] = assay: Inhibition of LPS-induced NO production in mouse RAW264.7 cells at 25 ug/ml measured after 24 hrs by Griess assay relative to LPS-treated control; format: functional; details: RAW264.7, 24 h
[20] = Antiplatelet aggregatory activity against New Zealand white rabbit platelets at 50 uM preincubated for 2 to 3 mins followed by arachidonic acid -addition measured after 4 mins by turbidometric method relative to vehicle control; format: functional, Oryctolagus cuniculus, Platelet
[21] = Antiplatelet aggregatory activity against New Zealand white rabbit platelets at 10 uM preincubated for 2 to 3 mins followed by PAF-addition measured after 4 mins by turbidometric method relative to vehicle control; format: functional, Oryctolagus cuniculus, Platelet

Compound | Activity [1] | viability at 24 h, 3.125 ug/ml [2] [%] | inhibition at 6.25 µg/mL (RAW264.7 [3]) [%] | inhibition (RAW264.7 [4]) | IC50 (RAW264.7 [4]) [µg/mL] | viability at 24 h, 25 ug/ml [5] [%] | Activity [6] [%] | inhibition at 12.5 µg/mL (RAW264.7 [7]) [%] | viability at 24 h, 12.5 ug/ml [8] [%] | viability at 24 h, 6.25 ug/ml [9] [%] | viability at 24 h, 50 ug/ml [10] [%] | Activity [11] [%] | inhibition at 3.125 µg/mL (RAW264.7 [12]) [%] | other results
CC(C)=CC1Oc2cc(O)ccc2-c2oc3c4c(cc(O)c3c(=O)c21)OC(C)(C)C=C4 (centres undefined) [CYCLOMORUSIN] | <60% | 86.3 | 54.1 | Dose-dependent effect | 4.5 (≈ 10.8 µM) | 57.6 | <60 | 73.7 | 81.9 | 86.2 | 14 | <60 | 46.6 | 
C=C(C)C(=O)c1c(-c2ccc(O)cc2O)oc2cc3c(c(O)c2c1=O)C=CC(C)(C)O3 | <60% |  |  |  |  |  | <60 |  |  |  |  | <60 |  | 
CC(C)(O)CCc1c(-c2ccc(O)cc2O)oc2c3c(cc(O)c2c1=O)OC(C)(C)C=C3 [MORUSINOL] | 57.88 - 78.98% | 95.9 | 59 to 62.5 | Dose-dependent effect | 4.1 to 4.6 (≈ 9.35 to 10.5 µM) | 36.9 to 49.2 | 50.5 | 81.4 | 69.5 to 82.1 | 81.9 to 91.3 | 9.9 to 14.4 | <60 | 42 to 45.8 | 
CC(=O)Oc1ccc(-c2oc3c4c(cc(O)c3c(=O)c2CC=C(C)C)OC(C)(C)C=C4)c(OC(C)=O)c1 | 93.27% | 91 | 69.2 | Dose-dependent effect | 2.4 (≈ 4.76 µM) | 13.9 | 90.01 |  | 36.6 | 80.3 | 11.7 | 90.22 | 58.7 | viability at 24 h, 1.563 ug/ml [13]: 96%; inhibition at 1.563 µg/mL (RAW264.7 [14]): 40.4%; pIC50 [15]: 4.99
O=[N+]([O-])/C=C\c1ccc(O)cc1 | 96.35% | 89 | 60 | Dose-dependent effect | 2.1 (≈ 12.7 µM) | 46.9 | 96.03 |  | 48.3 | 82.2 | 11.9 | 73.02 | 59.6 | inhibition at 1.562 µg/mL (RAW264.7 [16]): 46.4%; pIC50 [15]: 5.01; pIC50 [17]: 5.01; viability at 24 h, 1.562 ug/ml [18]: 94.5%
CC(C)=CCc1c(-c2ccc(O)cc2O)oc2c3c(cc(O)c2c1=O)OC(C)(C)C=C3 [MORUSIN] | 60.22% | 94.5 | 23.3 | Dose-dependent effect | > 12.5 | 69.6 | <60 | 39.3 | 73.8 | 83.3 | 23.1 | <60 | 15.1 | 
C=C(C)C(O)CC[C@]1(C)C=Cc2c(cc3oc(-c4ccc(O)cc4)cc(=O)c3c2O)O1 (some centres undefined) | <60% |  |  |  |  |  | <60 |  |  |  |  | <60 |  | 
CC1(C)C=Cc2c(cc(O)c3c(=O)c4c(oc23)-c2ccc(O)cc2OC(C(C)(C)O)C4)O1 (centres undefined) [NEOCYCLOMORUSIN] | 98.57% | 98.3 | 50.8 | Dose-dependent effect | 6.3 (≈ 14.4 µM) | 40.8 | 99.7 |  | 48.8 | 82.4 | 12.8 | 99.63 | 41.2 | 
CC(C)=CCC/C(C)=C/Cc1c(-c2ccc(O)cc2O)oc2c(CC=C(C)C)c(O)cc(O)c2c1=O | 96.37% | 100 | 33.7 | Dose-dependent effect | > 25 | 96.8 | 89.66 | 34.1 | 97.1 | 99.7 | 67 | 90.15 | 30 | inhibition at 25 µg/mL (RAW264.7 [19]): 35%
CC(=O)Oc1ccccc1C(=O)O [ASPIRIN] |  |  |  |  |  |  |  |  |  |  |  |  |  | Activity [20]: 90.62%
CCCCCCCCCCCCCCCCCCNC(=O)OCC(COP(=O)([O-])OCC[n+]1ccsc1)OC (centres undefined) |  |  |  |  |  |  |  |  |  |  |  |  |  | Activity [21]: 85.96%

Source: ChEMBL document CHEMBL3870345, “Bioactive chemical constituents from the root bark of Morus australis” (Bioorg Med Chem Lett, 2017)
